# In patent US20230029496A1, “AMINO ACID ALTERNATIVE CURING SYSTEM” (THE TEXAS A&M UNIVERSITY SYSTEM, priority 2019, published 2023):
# “And” between values parts separate entries of the source, which are not always exact repeats. Equal values may be shown once. Marks after values point to notes of the source that are not given here.
# Key:
# [1] = tested on: Nitric Oxide Synthase (NOS) system; experiment: Residual nitrite in plastic casing test tube ground pork loin sausages (Example 10); settings: for Nitrite Pellet / Nitrite Supernatant: cooked
# Method: The desired cured color could not initially be generated in a variety of processed meat products in a pilot plant setting. […] Pork loins (N=2) procured from a local meat distributor (Mar. 18, 2019) were used. Eight pounds of pork loins were ground (½″ then ¼″ plate) and weighed out in one pound portions. Plastic waterproof casings (2″ diameter) were clipped at one end. One pound of ground pork loin was placed in the casing and two pounds of brine (L-arginine concentration 7498 ppm) were added and the open end of the casing clipped. Based on laboratory test tube studies, meat samples would absorb 20-25% of the solution which equates to absorption of approximately 1500 ppm of L-arginine. Each plastic casing contained the same proportion of meat and brine as conducted during previous laboratory experiments (Table 12). A control was manufactured by substituting distilled water for the L-arginine brine.
# After thermal processing the plastic casing test tubes were cut open and emptied into beakers, then separated into residue (meat particles) and supernatant (liquid) via paper filtration into 50 mL conical tubes for collection and subsequent analysis for residual nitrite (supernatant) and cured pigment formation/nitrosylation (meat residue).
# Nitrosylation and residual nitrite analyses was performed under reduced light to avoid loss of pigmentation. L-arginine treated test tube pork sausage averaged 53.12 to 72.30 ppm of residual nitrite in the cooked meat pellet with percent nitrosylation ranging from 33 to 60 percent (Table 13). The brine was formulated to deliver 1500 ppm ingoing L-arginine at 25% absorption into the meat after two hours of immersion in the brine solution.
# eNOS system = experiment: Whole muscle injection or immersion of pork loin/tenderloin with L-arginine test brine without phosphate (Example 9): pH and cured color
# Method: Two (N=2) pork loins were procured from the same batch previously described (Mar. 18, 2019 pack date). […] Initial muscle pH was prior to and after injection/immersion and the brine pH was measured as well (Table 11). […] No sodium tri-polyphosphate was added to the brine, only water, salt, arginine, and sodium erythorbate in the same concentration/percentage used for prior benchtop laboratory tests. […] Phosphate was eliminated from the test brine to decrease pH to increase the likelihood of the L-arginine activating the eNOS system found within the meat.
# Four (N=4) tenderloins fabricated from four pork loins (Mar. 18, 2019 pack date) were subjected to immersion curing by placing them into the remaining (leftover) test brine (no injection) for approximately 18 hr. were immersed in the remaining brine to simulate previous test tube trials.
# After thermal processing, each sample was sliced to determine if any nitrosylation or cure color formation occurred. […] Even though phosphate was not included in the formulation the brine pH was still high. […] It appears that the concentration of L-arginine and the high brine pH may not be at the right amount/level to achieve the desired cured meat reaction. Based on these product failures, it was decided to go back to use the original protocol used in laboratory testing—but use a waterproof sausage casings to create a “pilot plant tube” to make sure the results seen in the laboratory could be replicated in a pilot plant setting.
# [2] = tested on: Nitric Oxide Synthase (NOS) system; experiment: Cure efficiency (NO-heme, total heme, nitrosylation) of cooked pre-rigor pork semimembranosus muscle (first study); assay type: biochemical; settings: for NO-Heme / Total Heme: ppm acid hematin
# Method: Cooked meat samples were subjected to analysis to determine the degree of nitrosylation of residual nitrite, the procedure set forth by Pearson and Tauber (Pearson and Tauber, 1984) from Hornsey's procedure for analyzing small samples was used to analyze sample supernatant and pellet. 2 mL or 2 g of the samples were treated with acetone to measure NO-heme concentration and separately 2 mL or 2 g of the samples were treated with acetone and hydrochloric acid to measure total heme concentration in a 1 cm quartz cuvette. NO-heme concentration (ppm acid hematin) was determined using a spectrophotometer (2100 Series Spectrophotometer, Unico, Dayton, N.J.) by reading samples at 540 nm. Total heme concentration (ppm acid hematin) was determined at 640 nm determined nitrosylation, which indicated how well varying concentrations of L-arginine affected the NOS system's ability to cure, known as cure efficiency. This procedure measured how much myoglobin was converted to nitroso-hemochromagen, the cured meat color, and the level of conversion compared to all pigmentation within the sample.
# Curing efficiency or nitrosylation is calculated as the percentage conversion of NO-heme to total heme. Cure efficiency is the percentage of total pigment converted to nitroso pigment and indicated the degree of cured color fading. Cured meat pigment is extracted in a solution of 80% acetone and 20% water that extracts cured pigment heme. Total heme pigments are extracted using an acidified acetone solution that extracts heme from all heme proteins as first used by Hornsey. NO-heme concentration (as ppm acid hematin)=sample A540×290 determines the specific cure color pink from the rest of the heme pigmentation of the sample. Total heme concentration (ppm acid hematin)=sample A640×680 determines the total heme pigmentation of the sample. Cure efficiency (%)=(ppm of nitrosoheme […]ppm of total pigment)×100 and indicates how much of the product is cured and holds the cured pink stability once cooked.
# Procedures • 1. Do all procedures in subdued light to reduce fading of pigment. • 2. Weigh out 2.0 g minced lean meat sample in a 50-mL polypropylene centrifuge tube. • 3. Pipette 9.0 mL acetone-a into 50-mL tube, to obtain acetone concentration of 80%. • 4. Mix thoroughly with a probe-type homogenizer or a glass rod. • 5. Cap the tube to minimize evaporation of acetone, and mix by gentle swirling. • 6. Let stand 10 minutes in the dark, then filter through medium-fast filter paper into a glass test tube. • 7. Transfer filtrate into a 1-cm quartz cuvette and read absorbance at 540 nm. (Avoid use of disposable plastic cuvettes. They become opaque upon exposure to acetone). Calculate nitroso pigment concentration as previously described. • 8. Prepare another 2.0-g sample, using acetone-b. • 9. Macerate and hold 1 hour in the dark before filtering. • 10. Filter the extract as before, and read absorbance at 640 nm. Calculate total pigment and cure efficiency as previously described.
# [3] = 2 mM L-arginine, cooked supernatant
# [4] = 4 mM L-arginine, cooked supernatant
# [5] = 8 mM L-arginine, cooked supernatant
# [6] = 16 mM L-arginine, cooked pellet
# [7] = 16 mM L-arginine, cooked supernatant
# [8] = 32 mM L-arginine, cooked pellet
# [9] = 32 mM L-arginine, cooked supernatant
smiles,measurement,setting,value
N=C(N)NCCC[C@H](N)C(=O)O [L-arginine],Nitrite Pellet,[1]; 10% L-arginine brine (formulated for 1500 ppm L-arginine),72.31^a ppm
same,Nitrite Supernatant,[1]; 10% L-arginine brine,33.48^a ppm
same,Nitrite Pellet,[1]; 15% L-arginine brine (formulated for 1500 ppm L-arginine),53.12^ab ppm
same,Nitrite Supernatant,[1]; 15% L-arginine brine,36.50^a ppm
same,Nitrite Pellet,[1]; 20% L-arginine brine (formulated for 1500 ppm L-arginine),59.52^ab ppm
same,Nitrite Supernatant,[1]; 20% L-arginine brine,40.80^a ppm
same,Nitrite Pellet,[1]; 25% L-arginine brine (formulated for 1500 ppm L-arginine),59.63^ab ppm
same,Nitrite Supernatant,[1]; 25% L-arginine brine,35.34^a ppm
same,residual nitrite in the cooked meat pellet,[1]; range of averages over brine additions 10-25%,53.12 to 72.30 ppm
same,nitrosylation or cure color formation after thermal processing,"eNOS system; injected loin sections and immersion cured tenderloins, cooked to 145° F.",no color change
same,End pH,"eNOS system; loin, 10% injection of test brine (Table 10)",5.56
same,End pH,"eNOS system; loin, 15% injection of test brine (Table 10)",5.60
same,End pH,"eNOS system; loin, 20% injection of test brine (Table 10)",5.62
same,End pH,"eNOS system; loin, 25% injection of test brine (Table 10)",6.51
same,End pH,"eNOS system; tenderloin, immersion in test brine (Table 10) approximately 18 hr",6.10 and 6.15 and 6.13 and 6.12
same,Brine pH,"eNOS system; test brine of Table 10: L-arginine 5574.90 ppm, no phosphate",10.79
same,Nitrosylation (Cure Efficiency),"[2]; 2 mM L-arginine, cooked pellet",46.51% and 46.51^ab %
same,NO-Heme,"[2]; 2 mM L-arginine, cooked pellet",8.70^a ppm
same,Total Heme,"[2]; 2 mM L-arginine, cooked pellet",64.77 ppm and 64.77^a ppm
same,Nitrosylation (Cure Efficiency),[2]; [3],125.52^a %
same,NO-Heme,[2]; [3],43.94^a ppm
same,Total Heme,[2]; [3],24.22 ppm and 24.22^ab ppm
same,Nitrosylation (Cure Efficiency),"[2]; 4 mM L-arginine, cooked pellet",74.27% and 74.27^ab %
same,NO-Heme,"[2]; 4 mM L-arginine, cooked pellet",7.77^a ppm
same,Total Heme,"[2]; 4 mM L-arginine, cooked pellet",35.87^ab ppm
same,Nitrosylation (Cure Efficiency),[2]; [4],155.68^a %
same,NO-Heme,[2]; [4],21.09^a ppm
same,Total Heme,[2]; [4],34.17 ppm and 34.17^ab ppm
same,Nitrosylation (Cure Efficiency),"[2]; 8 mM L-arginine, cooked pellet",70.13% and 70.13^ab %
same,NO-Heme,"[2]; 8 mM L-arginine, cooked pellet",9.33^a ppm
same,Total Heme,"[2]; 8 mM L-arginine, cooked pellet",33.44^ab ppm
same,Nitrosylation (Cure Efficiency),[2]; [5],108.99^a %
same,NO-Heme,[2]; [5],16.44^a ppm
same,Total Heme,[2]; [5],70.38 ppm and 70.38^a ppm
same,Nitrosylation (Cure Efficiency),[2]; [6],97.82% and 97.82^ab %
same,NO-Heme,[2]; [6],11.69^a ppm
same,Total Heme,[2]; [6],36.04^ab ppm
same,Nitrosylation (Cure Efficiency),[2]; [7],110.11^a %
same,NO-Heme,[2]; [7],16.73^a ppm
same,Total Heme,[2]; [7],20.14 ppm and 20.14^ab ppm
same,Nitrosylation (Cure Efficiency),[2]; [8],156.72% and 156.72^a %
same,NO-Heme,[2]; [8],13.05^a ppm
same,Total Heme,[2]; [8],54.40^ab ppm
same,Nitrosylation (Cure Efficiency),[2]; [9],50.48^a %
same,NO-Heme,[2]; [9],16.86^a ppm
same,Total Heme,[2]; [9],31.67 ppm and 31.67^ab ppm
same,cure efficiency,"[2]; cooked supernatant, at all L-arginine concentrations",over 100%
